IC50 data for 8 molecules are collected here from ChEMBL document CHEMBL1145021, “First X-ray cocrystal structure of a bacterial FabH condensing enzyme and a small molecule inhibitor achieved using rational design and homology modeling” (J Med Chem, 2003).

A short description of assay [1]: Inhibitory activity against Escherichia coli Beta-ketoacyl-ACP synthase III (initiator of the fatty acid synthesis).
A short description of assay [2]: Inhibitory activity against Streptococcus pneumoniae Beta-ketoacyl-ACP synthase III (initiator of the fatty acid synthesis).
A short description of assay [3]: Inhibitory activity against Escherichia coli Beta-ketoacyl-ACP synthase III (FabH) (initiator of the fatty acid synthesis).
Assay [4] is described as follows: Inhibitory activity against Streptococcus pneumoniae Beta-ketoacyl-ACP synthase III (FabH) (initiator of the fatty acid synthesis).
The nature of assay [5]: Inhibitory activity against Escherichia coli FabH (initiator of the fatty acid synthesis).
Assay [6] can be described thus: Inhibitory activity against Streptococcus pneumoniae FabH (initiator of the fatty acid synthesis).

The IC50 is the concentration at which inhibition is half-maximal. As to `O=C(O)c1ccc(Cn2c(C(=O)O)cc3cc(OCc4c(Cl)cccc4Cl)ccc32)cc1`, the values for the IC50 in assay [1] and in assay [2] were 2500 nM and 200 nM, respectively.
Regarding `O=C(O)Cn1c(C(=O)O)cc2cc(OCc3c(Cl)cccc3Cl)ccc21`, the 50% inhibitory concentration (IC50) in assay [3] worked out at 78000 nM; in assay [4], 1200 nM.
In the case of `O=C(O)CCCCCn1c(C(=O)O)cc2cc(OCc3c(Cl)cccc3Cl)ccc21`, the IC50 in assay [4] was determined as 140 nM.
For the molecule `O=C(O)c1cc2cc(OCc3c(Cl)cccc3Cl)ccc2n1Cc1cc2c(cc1Cl)OCO2`, the IC50 worked out at 830 nM in assay [5] and 40 nM in assay [6].
The corresponding values for `O=C(O)c1cc2cc(OCc3c(Cl)cccc3Cl)ccc2n1Cc1ccc(O)cc1` are 2000 nM and 53 nM.
As to `O=C(O)CCCn1c(C(=O)O)cc2cc(OCc3c(Cl)cccc3Cl)ccc21`, the IC50 in assay [3] worked out at 1700 nM; in assay [4] it was 62 nM.
For `O=C(CCCCCn1c(C(=O)O)cc2cc(OCc3c(Cl)cccc3Cl)ccc21)NS(=O)(=O)c1ccccc1` the same measures were 4600 nM and 46 nM.
For `O=C(O)CCCCCCn1c(C(=O)O)cc2cc(OCc3c(Cl)cccc3Cl)ccc21` the same measures were 2000 nM and 170 nM.
